Assay results reported in patent US12415832B2, “B-catenin/B-cell Lymphoma 9 protein-protein interaction inhibiting peptidomimetics” (University of South Florida, priority 2019, dated 2025).
Where two headings read alike, the source gives them in different places.

How the values were obtained:
β-catenin = target: T1, β-catenin (Homo sapiens, UniProt P35222); assay: FP assay, binding of peptides with β-catenin (Kd); conditions: for decrease in binding affinity relative to 2: Ala substitution; for Kd: fluorescence polarization, 50 nM FITC labeled peptide, 1×PBS
T1 sequence (P35222 1-781): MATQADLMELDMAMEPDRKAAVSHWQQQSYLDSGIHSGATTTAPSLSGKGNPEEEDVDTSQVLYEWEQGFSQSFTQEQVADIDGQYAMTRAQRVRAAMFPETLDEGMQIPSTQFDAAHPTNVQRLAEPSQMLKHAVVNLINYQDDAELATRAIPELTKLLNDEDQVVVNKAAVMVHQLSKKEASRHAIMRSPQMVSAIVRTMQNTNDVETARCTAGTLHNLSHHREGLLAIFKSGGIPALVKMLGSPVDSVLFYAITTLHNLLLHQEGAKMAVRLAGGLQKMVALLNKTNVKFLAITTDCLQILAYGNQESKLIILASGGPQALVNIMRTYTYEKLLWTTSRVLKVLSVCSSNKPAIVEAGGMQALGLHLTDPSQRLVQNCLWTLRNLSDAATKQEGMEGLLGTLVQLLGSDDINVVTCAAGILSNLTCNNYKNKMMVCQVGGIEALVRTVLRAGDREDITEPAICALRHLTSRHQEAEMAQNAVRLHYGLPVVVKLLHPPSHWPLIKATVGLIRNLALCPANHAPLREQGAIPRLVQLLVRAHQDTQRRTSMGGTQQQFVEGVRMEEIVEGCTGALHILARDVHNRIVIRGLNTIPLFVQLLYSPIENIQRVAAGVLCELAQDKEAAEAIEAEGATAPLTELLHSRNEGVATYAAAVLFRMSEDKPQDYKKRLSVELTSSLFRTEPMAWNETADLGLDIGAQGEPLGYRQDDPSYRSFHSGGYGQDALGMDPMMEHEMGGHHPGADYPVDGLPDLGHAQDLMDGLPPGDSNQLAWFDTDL

β-catenin/BCL9 PPI [1] = target: T2, β-catenin/BCL9 PPI (Homo sapiens, UniProt P35222); assay: AlphaScreen competitive inhibition assay of β-catenin/BCL9 PPI; format: binding; conditions: AlphaScreen, mean ± SD; for IC50: 5 nM biotinylated BCL9, 40 nM His6-tagged FL-β-catenin; for Ki: Ki derived from IC50 by method of Nikolovska-Coleska et al.
T2 construct: 40 nM His6-tagged FL-β-catenin
T2 sequence (P35222 1-781): T1 sequence (P35222 1-781)
Experimental: For the competitive inhibition assays of β-catenin/BCL9 PPI, the negative control (equivalent to 0% inhibition) refers to 5.0 nM biotinylated BCL9, 40 nM His6-tagged FL-β-catenin, and 10 μg/mL of donor and acceptor beads in a final volume of 25 μL of assay buffer, but no tested inhibitor present. The positive control (equivalent to 100% inhibition) refers to 5.0 nM biotinylated BCL9 and 10 μg/mL of donor and acceptor beads in a final volume of 25 μL of assay buffer. For the β-catenin/BCL9 assay, 5 nM biotinylated BCL9 and 40 nM His6-tagged FL-β-catenin were incubated in assay buffer at 4° C. for 30 min. Different concentrations of the tested inhibitor were added and incubated in 20 μL of assay buffer at 4° C. for another 1 h. All of the above assay plates were covered and gently mixed on an orbital shaker. The donor and acceptor beads were then added to the plates to a final concentration of 10 μg/mL in 25 μL of assay buffer. The mixture was incubated for 1 h at 4° C. before detection. The IC50 value was determined by nonlinear least-squares analysis of GraphPad Prism 5.0. The Ki values were derived from the IC50 values using a method reported by Nikolovska-Coleska et al. The assays were conducted under the conditions reported by Nikolovska-Coleska et al.'s equation for determining the Ki values. All of the experiments were performed in triplicate. The results were expressed as mean±standard deviation.

SW480 cell = format: cell-based; conditions: 72 h
Experimental: Colorectal cancer cell lines SW480 were seeded in 96-well plates at 5×10^3 cells/well, maintained overnight at 37° C., and incubated in the presence of inhibitors at various concentrations. Cell viability was monitored after 72 h using a freshly prepared mixture of one-part phenazine methosulfate (PMS, Sigma) solution (0.92 mg/mL) and 19 parts MTs agent (3-(4,5-dimethylthiazol-2-yl)-5-(3-carboxymethoxyphenyl)-2-(4-sulfophenyl)-2H-tetrazolium, inner salt, Promega) solution (2 mg/mL). Cells were incubated in 10 μL of this solution at 37° C. for 3 h, and A490 was measured. The effect of each compound is expressed as the concentration required to reduce A490 by 50% (IC50) relative to vehicle-treated cells. Experiments were performed in triplicate and repeated for three times.

A549 cell = format: cell-based; conditions: 72 h
[2] = system: Wnt/β-catenin signaling transactivation (TOPFlash); assay: Wnt-responsive TOPFlash luciferase reporter assay in SW480 cells; conditions: for IC50: read-out: TOPFlash luciferase IC50 (estimated), 24 h
Source text: Wnt-specific TOPFlash/FOPFlash luciferase reporter assays were used to evaluate the effects of these compounds on β-catenin-dependent transcription. For the TOPFlash reporter construct, the firefly luciferase reporter gene was placed downstream of three wild-type Tcf binding sites. For the FOPFlash reporter construct, the firefly luciferase reporter gene was place downstream of three mutant Tcf binding sites. The high expression of firefly luciferase in TOPFlash assays was controlled by tandem Tcf binding sites. The renilla luciferase reporter construct (pCMV-RL) was used as the internal control to normalize luciferase reporter signals and eliminate systematic errors such as cell viability, transfection effect, etc.
SW480 cells were co-transfected with 60 ng of the TOPFlash or FOPFlash firefly luciferase reporter gene and 40 ng of renilla luciferase pCMV-RL normalization reporter. Cells were cultured in DMEM and 10% FBS at 37° C. for 24 h, and different concentrations of inhibitors or DMSO were added. After 24 h, the luciferase reporter activity was measured using the Dual-Glo system (E2940, Promega). Normalized luciferase activity in response to the treatment with inhibitors was compared with that obtained from the cells treated with DMSO. Experiments were performed in triplicate.

β-catenin/BCL9 PPI [3] = assay: Co-immunoprecipitation in HCT116 cells; format: cell-based; conditions: 24 h
Experimental: β-Catenin signaling hyperactive HCT116 cancer cells at […] were treated with different concentrations of the inhibitor for 24 h. Cells were then lysed in buffer containing 50 mM Tris, pH 7.4, 150 mM NaCl, 1% Nonidet […], 2 mM EDTA, and protease inhibitors. The cell lysates were then preadsorbed to A/G plus agarose (sc-2003, Santa Cruz Biotechnology) at 4° C. for 1 h. Preadsorbed lysates were incubated with a specific primary antibody against […] (610153, BD Biosciences) overnight at 4° C. A/G plus agarose was then added to the lysate mixture and incubated for 3 h. The beads were washed four times with the lysis buffer at 4° C. The bound protein was eluted by boiling in the SDS sample buffer and loaded onto 8% SDS polyacrylamide gel for electrophoretic analysis. Separated proteins were transferred onto nitrocellulose membranes for immunoblot analysis. The antibodies against BCL9 (ab37305, Abcam), β-catenin (610153, BD Biosciences), and […] (sc-55529, Santa Cruz Biotechnology, Inc.) were incubated with the membranes, respectively. IRDye 680LT goat anti mouse IgG (827-11080, LiCOR) and IRDye 800CW goat anti rabbit IgG (926-32211, LiCOR) were used as the secondary antibodies. The images were detected by the Odyssey Infrared Imaging System (LiCOR). Experiments were performed in duplicate.

| Molecule | decrease in binding affinity relative to 2 (β-catenin) | Kd (β-catenin) | IC50 (β-catenin/BCL9 PPI [1]) | Ki (β-catenin/BCL9 PPI [1]) | IC50 (SW480 cell) | IC50 (A549 cell) | IC50 [2] | disruption of β-catenin/BCL9 PPI in cells (co-IP) (β-catenin/BCL9 PPI [3]) | IC50 (SW480 cell; SW480 cell, hyperactive β-catenin signaling, read-out: MTS IC50 ± SD) | TOPFlash luciferase activity, result in words [2] |
| --- | --- | --- | --- | --- | --- | --- | --- | --- | --- | --- |
| CCC(C)[C@@H](CN(CC(=O)N[C@@H](CC(C)C)CN(CC(=O)N[C@@H](CC(C)C)CN(CC(N)=O)S(=O)(=O)Cc1ccccc1)S(=O)(=O)CC(C)C)S(C)(=O)=O)NC(=O)CN(C[C@H](CCCNC(=N)N)NC(=O)CN(C[C@H](CC(C)C)NC(=O)CN(C[C@@H](NC(=O)CN(C[C@H](CC(C)C)NC(=O)CN(C[C@H](CCCNC(=N)N)NC(=O)CN(C[C@H](CCCNC(=N)N)NC(=O)CN(C[C@H](CCC(=O)O)NC(C)=O)S(C)(=O)=O)S(C)(=O)=O)S(C)(=O)=O)S(=O)(=O)CCN)C(C)O)S(=O)(=O)CC(C)C)S(=O)(=O)CCN)S(=O)(=O)CC(C)C (stereo partly drawn) [Peptide 3] | about 1.5 fold | 0.86 µM | 1.04 ± 0.21 µM | 0.92 ± 0.17 µM | 12.8 ± 2.9 µM | 43.7 ± 3.62 µM | 26.5 µM |  |  |  |
| CCC(C)[C@@H](CN(CC(=O)N[C@@H](CC(C)C)CN(CC(=O)N[C@@H](CC(C)C)CN(CC(N)=O)S(=O)(=O)Cc1ccccc1)S(=O)(=O)CC(C)C)S(C)(=O)=O)NC(=O)CN(C[C@H](CCCNC(=N)N)NC(=O)CN(C[C@H](CC(C)C)NC(=O)CN(C[C@@H](NC(=O)CN(C[C@H](CC(C)C)NC(=O)CN(C[C@H](CCCNC(=N)N)NC(=O)CN(C[C@H](C)NC(=O)CN(C[C@H](CCC(=O)O)NC(C)=O)S(=O)(=O)CCN)S(C)(=O)=O)S(C)(=O)=O)S(=O)(=O)CCN)C(C)O)S(=O)(=O)CC(C)C)S(=O)(=O)CCN)S(=O)(=O)CC(C)C (stereo partly drawn) [Peptide 4] | about 1.5 fold | 0.82 µM | 1.1 ± 0.14 µM | 0.98 ± 0.11 µM | 16.4 ± 4.4 µM | 43.2 ± 5.6 µM | 20.6 µM | disrupted the β-catenin/BCL9 PPI in a dose-dependent manner |  |  |
| Ac-SQEQLEHRERSLQTLRDIQRMLF-NH2 [Peptide 1, reference compound] |  | 0.97 µM | 1.28 µM | 1.13 µM |  | > 200 µM |  |  | > 200 µM | did not show any activity |
